Values of other authors as cited in US6939558B2, “Intravaginal devices containing progesterone for estrus synchronization and related proceses” (Akzo Nobel N.V., priority 2001, dated 2005).

Test system: bovines
Conditions: 1 mg Estradiol Benzoate 24 hours after removal of the device

For `C[C@]12CC[C@@H]3c4ccc(OC(=O)c5ccccc5)cc4CC[C@H]3[C@@H]1CC[C@@H]2O` [Estradiol Benzoate], the “ovulation after removal of the device” value is listed as 70 h.
